Measured values taken from US6461997B1, “Triazole sulfones having herbicidal activity” (Monsanto Technology LLC, priority 1999, dated 2002).

Columns and labels:
POLCO (wild buckwheat) [1] = experiment: Pre-emergence herbicidal activity, cool season; assay type: in vivo, Polygonum convolvulus; conditions: lowest tested rate with 80% or greater inhibition; rates 300, 100, 30, 10 g/ha; about 14 days
Summary of the method: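 Pre-emergence soil-surface spray; rates 300/100/30/10 g/ha; acetone:water 50:50 diluent. Warm-season species (PANMI, DIGSA) grown at 30/21 °C, cool-season species (ALOMY, POLCO) at 18/13 °C. Inhibition scored ~14 d after treatment versus untreated controls → GR80.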

SASKR (russian thistle) = experiment: Pre-emergence herbicidal activity, cool season; assay type: in vivo, Salsola kali; conditions: lowest tested rate with 80% or greater inhibition; rates 300, 100, 30, 10 g/ha; about 14 days
Summary of the method: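 GR80 values derive from percent inhibition relative to untreated plants, read roughly 14 days after sowing and pre-emergence soil-surface treatment (compound in 50:50 acetone/water; rates typically 10, 30, 100, 300 g/ha). Warm-season weeds grew at 30/21° C day/night, cool-season ones at 18/13° C; an asterisk marks activity without reaching 80% at the highest rate.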

AMARE (redroot pigweed) = experiment: Pre-plant incorporated (PPI) herbicidal activity, warm season; assay type: in vivo, Amaranthus retroflexus
Summary of the method: (§1)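 Pots are filled with topsoil, seeded, and topped with cover soil carrying the sprayed, mixed-in compound. After 0.64 cm overhead irrigation, growth proceeds at 30/21° C or 18/13° C day/night with mist or subirrigation. Scoring is percent inhibition relative to untreated controls about two weeks on.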

ECHCG (barnyardgrass) = experiment: as above; assay type: in vivo, Echinochloa crus-galli
Summary of the method: as §1

PANDI (fall panicum) = experiment: as above; assay type: in vivo, Panicum dichotomiflorum
Summary of the method: as §1

POLCO (wild buckwheat) [2] = experiment: Pre-plant incorporated (PPI) herbicidal activity, cool season; assay type: in vivo, Polygonum convolvulus
Summary of the method: as §1

[3] = test system: VERPE (creeping speedwell); experiment: as above; assay type: in vivo, Veronica persicaria; conditions: pre-plant incorporated; lowest tested rate with 80% or greater inhibition; about 14 days
Summary of the method: as §1

ALOMY (blackgrass) = experiment: as above; assay type: in vivo, Alopecurus myosuroides
Summary of the method: as §1

XANST (cocklebur) = experiment: Pre-plant incorporated (PPI) herbicidal activity, warm season; assay type: in vivo, Xanthium strumarium; conditions: Xanthium strumarium, PPI application, read-out: Percent inhibition XANST
Summary of the method: as §1

wheat (TRZAW) = experiment: Selectivity test, PPI, cool season crop; assay type: in vivo, Triticum aestivum; conditions: Triticum aestivum, PPI application, read-out: Percent inhibition TRZAW
Summary of the method: (§2)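 Percent inhibition relative to untreated controls, assessed roughly 14 days post-planting. Seeds were covered with a soil layer into which solvent-borne compound had been sprayed and mixed. Plants were then grown at 30/21° C. (warm season) or 18/13° C. (cool season) day/night regimes.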

oilseed rape (BRSNS) = experiment: Selectivity test, PPI, cool season crop; assay type: in vivo, Brassica napus; conditions: Brassica napus, PPI application, read-out: Percent inhibition BRSNS
Summary of the method: as §2

[4] = pre-plant incorporated, lowest tested rate with 80% or greater inhibition, about 14 days

SMILES: CCSC(F)(F)S(=O)(=O)c1ncn(C(=O)N(CC)CC)n1 [Example 8, 1-(N,N-diethylcarbamoyl)-3-[difluoro(ethylthio)methylsulfonyl]-1,2,4-triazole]
- Pre-emergence activity GR80, POLCO (POLCO (wild buckwheat) [1]): [empty]
- Pre-emergence activity GR80, SASKR (SASKR (russian thistle)): 300 g/ha
- inhibition at 30 g/ha (AMARE (redroot pigweed); Amaranthus retroflexus, PPI application, 30 g/ha, read-out: Percent inhibition AMARE): 100%
- inhibition at 100 g/ha (AMARE (redroot pigweed); Amaranthus retroflexus, PPI application, 100 g/ha, read-out: Percent inhibition AMARE): 100%
- inhibition at 300 g/ha (AMARE (redroot pigweed); Amaranthus retroflexus, PPI application, 300 g/ha, read-out: Percent inhibition AMARE): 100%
- inhibition at 900 g/ha (AMARE (redroot pigweed); Amaranthus retroflexus, PPI application, 900 g/ha, read-out: Percent inhibition AMARE): 100%
- PPI activity (GR80) AMARE (AMARE (redroot pigweed); pre-plant incorporated, GR80 = lowest tested rate with 80% or greater inhibition, approx. 14 days after treating, 30/21° C.): 100 g/ha
- inhibition at 30 g/ha (ECHCG (barnyardgrass); Echinochloa crus-galli, PPI application, 30 g/ha, read-out: Percent inhibition ECHCG): 90%
- inhibition at 100 g/ha (ECHCG (barnyardgrass); Echinochloa crus-galli, PPI application, 100 g/ha, read-out: Percent inhibition ECHCG): 100%
- inhibition at 300 g/ha (ECHCG (barnyardgrass); Echinochloa crus-galli, PPI application, 300 g/ha, read-out: Percent inhibition ECHCG): 100%
- inhibition at 900 g/ha (ECHCG (barnyardgrass); Echinochloa crus-galli, PPI application, 900 g/ha, read-out: Percent inhibition ECHCG): 100%
- PPI activity GR80, ECHCG (ECHCG (barnyardgrass); [4]): 30 g/ha
- inhibition at 30 g/ha (PANDI (fall panicum); Panicum dichotomiflorum, PPI application, 30 g/ha, read-out: Percent inhibition PANDI): 95%
- inhibition at 100 g/ha (PANDI (fall panicum); Panicum dichotomiflorum, PPI application, 100 g/ha, read-out: Percent inhibition PANDI): 100%
- inhibition at 300 g/ha (PANDI (fall panicum); Panicum dichotomiflorum, PPI application, 300 g/ha, read-out: Percent inhibition PANDI): 100%
- inhibition at 900 g/ha (PANDI (fall panicum); Panicum dichotomiflorum, PPI application, 900 g/ha, read-out: Percent inhibition PANDI): 100%
- PPI activity GR80, PANDI (PANDI (fall panicum); [4]): 30 g/ha
- inhibition at 30 g/ha (POLCO (wild buckwheat) [2]; Fallopia convolvulus, weed, PPI application, 30 g/ha, read-out: Percent inhibition POLCO): 0%
- inhibition at 100 g/ha (POLCO (wild buckwheat) [2]; Fallopia convolvulus, weed, PPI application, 100 g/ha, read-out: Percent inhibition POLCO): 0%
- inhibition at 300 g/ha (POLCO (wild buckwheat) [2]; Fallopia convolvulus, weed, PPI application, 300 g/ha, read-out: Percent inhibition POLCO): 85%
- inhibition at 900 g/ha (POLCO (wild buckwheat) [2]; Fallopia convolvulus, weed, PPI application, 900 g/ha, read-out: Percent inhibition POLCO): 100%
- PPI activity GR80, POLCO (POLCO (wild buckwheat) [2]; [4]): 300 g/ha
- PPI activity GR80, VERPE [3]: 100 g/ha
- inhibition at 30 g/ha (ALOMY (blackgrass); Alopecurus myosuroides, weed, PPI application, 30 g/ha, read-out: Percent inhibition ALOMY): 0%
- inhibition at 100 g/ha (ALOMY (blackgrass); Alopecurus myosuroides, weed, PPI application, 100 g/ha, read-out: Percent inhibition ALOMY): 95%
- inhibition at 300 g/ha (ALOMY (blackgrass); Alopecurus myosuroides, weed, PPI application, 300 g/ha, read-out: Percent inhibition ALOMY): 100%
- inhibition at 900 g/ha (ALOMY (blackgrass); Alopecurus myosuroides, weed, PPI application, 900 g/ha, read-out: Percent inhibition ALOMY): 100%
- PPI activity GR80, ALOMY (ALOMY (blackgrass); [4]): 100 g/ha
- inhibition at 30 g/ha (XANST (cocklebur); 30 g/ha): 0%
- inhibition at 100 g/ha (XANST (cocklebur); 100 g/ha): 0%
- inhibition at 300 g/ha (XANST (cocklebur); 300 g/ha): 20%
- inhibition at 900 g/ha (XANST (cocklebur); 900 g/ha): 50%
- inhibition at 30 g/ha (wheat (TRZAW); 30 g/ha): 0%
- inhibition at 100 g/ha (wheat (TRZAW); 100 g/ha): 0%
- inhibition at 300 g/ha (wheat (TRZAW); 300 g/ha): 20%
- inhibition at 900 g/ha (wheat (TRZAW); 900 g/ha): 60%
- inhibition at 30 g/ha (oilseed rape (BRSNS); 30 g/ha): 0%
- inhibition at 100 g/ha (oilseed rape (BRSNS); 100 g/ha): 0%
- inhibition at 300 g/ha (oilseed rape (BRSNS); 300 g/ha): 40%
- inhibition at 900 g/ha (oilseed rape (BRSNS); 900 g/ha): 100%
